Data published in patent US10294202B2, “Pyrrolidinones as herbicides” (FMC Corporation, priority 2013, dated 2019).

Columns and labels:
velvetleaf = assay: Test A pre-/postemergence herbicide test; type: in vivo, Abutilon theophrasti; settings: for Velvetleaf plant response rating: Preemergence, visual rating on 0 to 100 scale (0 no effect, 100 complete control)
Summary of the method: (§1)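 Approximately 10 days after treatment in the greenhouse, plants were compared with untreated controls and given a 0–100 visual injury rating. Applications: preemergence directed soil spray; postemergence on 2–10 cm plants at the one- to two-leaf stage.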

barnyardgrass [1] = assay: Test A pre-/postemergence herbicide test; type: in vivo, Echinochloa crus-galli; settings: for Barnyardgrass plant response rating: Preemergence, visual rating on 0 to 100 scale (0 no effect, 100 complete control)
Summary of the method: as §1

barnyardgrass [2] = assay: Test B flooded paddy test; type: in vivo, Echinochloa crus-galli; settings: 250 g ai/ha, Flood; scale of 0 to 100 where 0 is no effect and 100 is complete control
Summary of the method: (§2)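 Plants were grown to the 2-leaf stage, then pots were flooded to 3 cm above the soil and compound was applied directly into the paddy water, with that depth held throughout. After 13 to 15 days in a greenhouse, injury was rated visually against untreated controls on a 0 to 100 scale (100 = complete control).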

rice = assay: Test B flooded paddy test; type: in vivo, Oryza sativa; settings: 250 g ai/ha, Flood; scale of 0 to 100 where 0 is no effect and 100 is complete control
Summary of the method: as §2

crabgrass, large = assay: Test A pre-/postemergence herbicide test; type: in vivo, Digitaria sanguinalis; settings: for Crabgrass, Large plant response rating: Preemergence, visual rating on 0 to 100 scale (0 no effect, 100 complete control)
Summary of the method: as §1

sedge, umbrella = assay: Test B flooded paddy test; type: in vivo, Cyperus difformis; settings: 250 g ai/ha, Flood; scale of 0 to 100 where 0 is no effect and 100 is complete control
Summary of the method: as §2

corn = assay: Test A pre-/postemergence herbicide test; type: in vivo, Zea mays; settings: for Corn plant response rating: Preemergence, visual rating on 0 to 100 scale (0 no effect, 100 complete control)
Summary of the method: as §1

giant foxtail = assay: Test A pre-/postemergence herbicide test; type: in vivo, Setaria faberii; settings: for Foxtail, Giant plant response rating: Preemergence, visual rating on 0 to 100 scale (0 no effect, 100 complete control)
Summary of the method: as §1

pigweed = assay: Test A pre-/postemergence herbicide test; type: in vivo, Amaranthus retroflexus; settings: for Pigweed plant response rating: Preemergence, visual rating on 0 to 100 scale (0 no effect, 100 complete control)
Summary of the method: as §1

wheat = assay: Test A pre-/postemergence herbicide test; type: in vivo, Triticum aestivum; settings: for Wheat plant response rating: Preemergence, visual rating on 0 to 100 scale (0 no effect, 100 complete control)
Summary of the method: as §1

morningglory = assay: Test A pre-/postemergence herbicide test; type: in vivo, Ipomoea spp.; settings: for Morningglory plant response rating: Preemergence, visual rating on 0 to 100 scale (0 no effect, 100 complete control)
Summary of the method: as §1

ducksalad = assay: Test B flooded paddy test; type: in vivo, Heteranthera limosa; settings: 250 g ai/ha, Flood; scale of 0 to 100 where 0 is no effect and 100 is complete control
Summary of the method: as §2

[3] = Postemergence, 125 g ai/ha, 0 to 100 scale, 0 no effect, 100 complete control
[4] = Postemergence, 500 g ai/ha, 0 to 100 scale (0 no effect, 100 complete control)
[5] = preemergence, 500 g ai/ha, 0 to 100 scale
[6] = preemergence, 500 g ai/ha, 0 to 100 scale (0 no effect, 100 complete control)

SMILES	Plant response rating, Velvetleaf (velvetleaf; [3])	Plant response rating, Velvetleaf (velvetleaf; [4])	Velvetleaf plant response rating (velvetleaf; 125 g ai/ha)	Plant response rating, Velvetleaf (velvetleaf; [5])	Plant response rating, Barnyardgrass (barnyardgrass [1]; [3])	Plant response rating, Barnyardgrass (barnyardgrass [1]; [4])	Barnyardgrass plant response rating (barnyardgrass [1]; 125 g ai/ha)	Plant response rating, Barnyardgrass (barnyardgrass [1]; [6])	Plant response rating, Barnyardgrass (barnyardgrass [2])	Plant response rating, Rice (rice)	Plant response rating, Crabgrass, Large (crabgrass, large; [3])	Plant response rating, Crabgrass, Large (crabgrass, large; [4])	Crabgrass, Large plant response rating (crabgrass, large; 125 g ai/ha)	Plant response rating, Crabgrass, Large (crabgrass, large; [5])	Plant response rating, Sedge, Umbrella (sedge, umbrella)	Corn plant response rating (corn; 125 g ai/ha)	Plant response rating, Corn (corn; [5])	Plant response rating, Foxtail, Giant (giant foxtail; [3])	Plant response rating, Foxtail, Giant (giant foxtail; [4])	Foxtail, Giant plant response rating (giant foxtail; 125 g ai/ha)	other results
O=C1NCC(c2ccccc2)C1C(=O)Nc1cccc(F)c1F (stereo not shown) [Compound 65]	0	30	0	0	20	70	40	90	0	0	90	90	90	90	40	0	0	50	90	80	Plant response rating, Corn (corn; [3]): 0; Plant response rating, Corn (corn; [4]): 20; Plant response rating, Foxtail, Giant (giant foxtail; [5]): 90; Plant response rating, Pigweed (pigweed; [3]): 0; Plant response rating, Pigweed (pigweed; [4]): 0; Pigweed plant response rating (pigweed; 125 g ai/ha): 0; Plant response rating, Pigweed (pigweed; [5]): 0; Plant response rating, Wheat (wheat; [3]): 0; Plant response rating, Wheat (wheat; [4]): 20; Wheat plant response rating (wheat; 125 g ai/ha): 0; Plant response rating, Wheat (wheat; [5]): 0; Plant response rating, Morningglory (morningglory; [3]): 0; Plant response rating, Morningglory (morningglory; [4]): 20; Morningglory plant response rating (morningglory; 125 g ai/ha): 0; Plant response rating, Morningglory (morningglory; [5]): 0; Plant response rating, Ducksalad (ducksalad): 80
O=C1NCC(c2ccc(F)c(F)c2)C1C(=O)Nc1ccccc1Br (stereo not shown) [Compound 55]	0	0	0	0	30	90	20	80	50	50	80	80	80	90	70	0	0	70	80	70	Plant response rating, Corn (corn; [3]): 0; Plant response rating, Corn (corn; [4]): 0; Plant response rating, Foxtail, Giant (giant foxtail; [5]): 90; Plant response rating, Pigweed (pigweed; [3]): 0; Plant response rating, Pigweed (pigweed; [4]): 0; Pigweed plant response rating (pigweed; 125 g ai/ha): 0; Plant response rating, Pigweed (pigweed; [5]): 0; Plant response rating, Wheat (wheat; [3]): 0; Plant response rating, Wheat (wheat; [4]): 0; Wheat plant response rating (wheat; 125 g ai/ha): 0; Plant response rating, Wheat (wheat; [5]): 0; Plant response rating, Morningglory (morningglory; [3]): 0; Plant response rating, Morningglory (morningglory; [4]): 0; Morningglory plant response rating (morningglory; 125 g ai/ha): 0; Plant response rating, Morningglory (morningglory; [5]): 0; Plant response rating, Ducksalad (ducksalad): 75
COc1ncccc1NC(=O)C1C(=O)NCC1c1ccc(F)c(F)c1 (stereo not shown) [Compound 46]	0	0	0	0	0	0	0	50	0	0	30	60	70	90	0	0	0	0	40	40	Plant response rating, Foxtail, Giant (giant foxtail; [5]): 80; Plant response rating, Pigweed (pigweed; [3]): 0; Plant response rating, Pigweed (pigweed; [4]): 0; Pigweed plant response rating (pigweed; 125 g ai/ha): 0; Plant response rating, Pigweed (pigweed; [5]): 0; Plant response rating, Wheat (wheat; [3]): 0; Plant response rating, Wheat (wheat; [4]): 0; Wheat plant response rating (wheat; 125 g ai/ha): 0; Plant response rating, Wheat (wheat; [5]): 0; Plant response rating, Morningglory (morningglory; [3]): 0; Plant response rating, Morningglory (morningglory; [4]): 0; Morningglory plant response rating (morningglory; 125 g ai/ha): 0; Plant response rating, Morningglory (morningglory; [5]): 0; Plant response rating, Ducksalad (ducksalad): 0
